Assay [1] has as its target T1, Phosphatidylinositol 4,5-bisphosphate 3-kinase catalytic subunit delta isoform (Homo sapiens, UniProt O00329).
T1 sequence (O00329 whole entry): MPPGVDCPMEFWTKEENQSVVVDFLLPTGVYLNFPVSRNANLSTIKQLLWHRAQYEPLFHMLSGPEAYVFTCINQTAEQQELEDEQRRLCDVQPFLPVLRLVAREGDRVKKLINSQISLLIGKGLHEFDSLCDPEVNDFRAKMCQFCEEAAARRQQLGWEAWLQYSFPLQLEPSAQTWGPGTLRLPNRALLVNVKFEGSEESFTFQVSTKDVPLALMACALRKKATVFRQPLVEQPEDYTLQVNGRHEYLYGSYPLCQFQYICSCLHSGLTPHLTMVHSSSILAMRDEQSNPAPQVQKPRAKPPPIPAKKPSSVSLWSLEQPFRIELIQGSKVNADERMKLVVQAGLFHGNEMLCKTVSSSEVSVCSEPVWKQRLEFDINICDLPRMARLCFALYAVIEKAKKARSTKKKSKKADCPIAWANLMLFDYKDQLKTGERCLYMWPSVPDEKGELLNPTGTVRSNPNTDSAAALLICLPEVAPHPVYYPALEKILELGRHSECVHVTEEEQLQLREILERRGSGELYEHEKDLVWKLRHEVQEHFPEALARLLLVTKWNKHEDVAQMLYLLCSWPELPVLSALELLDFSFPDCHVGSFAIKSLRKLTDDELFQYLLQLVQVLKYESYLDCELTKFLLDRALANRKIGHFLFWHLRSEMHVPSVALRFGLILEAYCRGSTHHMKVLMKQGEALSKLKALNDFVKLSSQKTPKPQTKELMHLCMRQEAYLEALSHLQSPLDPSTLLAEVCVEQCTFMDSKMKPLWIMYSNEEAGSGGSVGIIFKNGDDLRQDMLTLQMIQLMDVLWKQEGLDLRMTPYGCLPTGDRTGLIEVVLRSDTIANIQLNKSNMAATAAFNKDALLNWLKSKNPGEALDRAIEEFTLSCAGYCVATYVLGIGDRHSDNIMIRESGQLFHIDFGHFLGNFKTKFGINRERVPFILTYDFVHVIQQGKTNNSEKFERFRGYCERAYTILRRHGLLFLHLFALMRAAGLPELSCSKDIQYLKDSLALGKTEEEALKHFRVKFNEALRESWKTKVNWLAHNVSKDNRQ
Nature of the assay: (§1) KINOMEscan Enzyme Binding Assays: Kinase enzyme binding affinities of compounds disclosed herein were determined using the KINOMEscan technology performed by DiscoveRx Corporation, San Diego, Calif., USA (www.kinomescan.com).

For assay [2], the target named is Phosphatidylinositol 4,5-bisphosphate 3-kinase catalytic subunit gamma isoform (Homo sapiens, UniProt P48736). Described as §1.
Phosphatidylinositol 4,5-bisphosphate 3-kinase catalytic subunit gamma isoform, sequence (P48736 whole entry, canonical isoform): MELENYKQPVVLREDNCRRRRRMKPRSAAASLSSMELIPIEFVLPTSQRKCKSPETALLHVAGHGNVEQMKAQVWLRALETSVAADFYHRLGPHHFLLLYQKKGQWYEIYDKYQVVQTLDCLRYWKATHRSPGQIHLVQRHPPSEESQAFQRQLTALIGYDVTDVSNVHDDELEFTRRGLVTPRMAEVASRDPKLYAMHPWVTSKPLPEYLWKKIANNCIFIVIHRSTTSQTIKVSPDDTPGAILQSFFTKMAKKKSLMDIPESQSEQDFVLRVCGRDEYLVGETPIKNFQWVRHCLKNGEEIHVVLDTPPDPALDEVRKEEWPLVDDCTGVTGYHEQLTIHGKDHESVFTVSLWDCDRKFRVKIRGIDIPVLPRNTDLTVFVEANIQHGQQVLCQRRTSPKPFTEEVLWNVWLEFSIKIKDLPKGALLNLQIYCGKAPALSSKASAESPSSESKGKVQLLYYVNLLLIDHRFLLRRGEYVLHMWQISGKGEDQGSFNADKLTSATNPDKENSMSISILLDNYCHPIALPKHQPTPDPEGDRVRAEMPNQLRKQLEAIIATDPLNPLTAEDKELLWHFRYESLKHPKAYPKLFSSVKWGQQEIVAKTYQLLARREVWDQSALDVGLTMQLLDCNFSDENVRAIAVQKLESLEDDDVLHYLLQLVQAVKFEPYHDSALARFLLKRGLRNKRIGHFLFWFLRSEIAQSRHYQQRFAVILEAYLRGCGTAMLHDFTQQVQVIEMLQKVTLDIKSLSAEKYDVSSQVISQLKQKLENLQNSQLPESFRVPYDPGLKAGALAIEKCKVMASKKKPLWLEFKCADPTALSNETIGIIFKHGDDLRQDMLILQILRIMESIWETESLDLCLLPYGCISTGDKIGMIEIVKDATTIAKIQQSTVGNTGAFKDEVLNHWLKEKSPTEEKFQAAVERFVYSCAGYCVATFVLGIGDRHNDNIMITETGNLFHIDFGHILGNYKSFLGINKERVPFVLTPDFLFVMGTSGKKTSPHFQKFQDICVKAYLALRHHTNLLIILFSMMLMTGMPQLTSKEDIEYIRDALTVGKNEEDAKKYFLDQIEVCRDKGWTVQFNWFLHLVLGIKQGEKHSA
The nature of assay [3]: as §1.

A word on the Kd: it is a measure of binding affinity in units of concentration. Consider `CCc1c(F)cccc1Cc1c(CNCCO)nc2c(N)cc(N3CCOCC3)nn12`, for which the Kd was 427 nM in assay [1] and 724 nM in assay [2]. For `Cc1c(Cc2c(CO)nc3c(-c4cnc[nH]4)cc(N4CCOCC4)nn23)cccc1C(F)(F)F` the same measures were 80 nM and 1760 nM. `CC(CO)NCc1c(F)cccc1Cc1c(CO)nc2c(N)cc(N3CCOCC3)nn12` (stereo not given): the dissociation constant (Kd) in assay [3] is above 30200 nM.

Values taken from ChEMBL document CHEMBL5725742, “Imidazopyridazine derivatives as PI3KB inhibitors” (2018).
